How the values were obtained:
[1] = tested on: recombinant CSN complex; experiment: Peptide array screen of C-CSNAP peptides with recombinant CSN (rCSN^WT); type: binding; details: for Average fold change: peptide array with rCSN, average of 3 experiments, left and right (n = 6), fold of C-CSNAP (A1); for Average fold change, intensities as fold of C-CSNAP (A1): rCSN^WT on INTAVIS Celluspots array, anti-CSN3 and HRP secondary antibody, average of six replicates (three independent experiments in duplicates);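 as to all read-outs here: densitometric signal of CSN bound to each synthesized peptide spot, with an antibody-only array lacking CSN run to exclude non-specific binding, higher values meaning stronger binding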
Protocol: To generate an optimized C-CSNAP peptide, we used the peptide array methodology. The array was designed to screen for the optimal peptide length, sequence, and stability (Fig 3A). A recombinant CSN complex was expressed, purified, and screened for binding to the peptide array by using an anti-CSN3 antibody. To rule out non-specific binding of the probing antibody, a control experiment was carried out without the addition of the CSN complex (Fig 3A right panel).
C-CSNAP peptide and its derivatives were synthesized on a microarray. The array was blocked and incubated with or without the COP9 signalosome complex (CSN) and probed using an anti-CSN3 antibody and HRP-conjugated secondary antibody. To assess non-specific binding of the antibodies to the array, anti-CSN3 and anti-GAR–HRP were used without the addition of the CSN. Signal intensity of each spot was measured and normalized to the intensity of the spot of C-CSNAP (A1). Measured values for each spot were averaged from six arrays and plotted with SEM. […] (A) A representative image of the peptide array (left) and the background (right). (B) Elongation of the C-terminal 16 amino acids (green) with one residue at a time based on the full-length sequence. […] (F) Single D-amino acid substitution at various positions.
(§1) Intensity values are normalized to the intensity of the 16AA C-CSNAP peptide (A1) on each array from three independent experiments in duplicates, and averages from the six replicates are calculated with SEM.
(§2) Optimization of C-CSNAP sequence for enhanced binding to recombinant CSN^ΔCSNAP was screened by printing the modified sequences of CSNAP or C-CSNAP (Phe to Trp, Asp to Glu, Ala screen, D-amino acid screen, N-α-methylation, and Aib incorporation on INTAVIS Celluspots array [2 × 384spots]). The array was blocked with 5% skim milk in TBS-0.5% Tween 20 (TBS-T) for 4 h at room temperature, washed three times in TBS-T, and then incubated with 0.5 μM CSN^ΔCSNAP in 5% milk–TBS-T. Bound CSN^ΔCSNAP was visualized by incubating with anti-CSN3 (ab79698) antibody (1:10,000, overnight) and goat-anti-rabbit-HRP secondary antibody (1:10,000, 1 h).

[2] = tested on: CSN^ΔCSNAP complex; experiment: Peptide array screen of C-CSNAP peptides with rCSN^ΔCSNAP; type: binding; details: average of 5 experiments;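 also: Array-printed peptides incubated with 0.5 µM CSN^ΔCSNAP, bound complex detected by anti-CSN3 antibody plus HRP-linked secondary, spot intensity expressed relative to the parent reference peptide spot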
Protocol: Peptide array screen of modified C-CSNAP peptides. C-CSNAP peptide and its derivatives were printed on a microarray. The array was blocked and incubated with or without the CSN∆CSNAP complex and probed using an anti-CSN3 antibody and HRP-conjugated secondary antibody. To assess non-specific binding of the antibodies to the array, anti-CSN3 and anti-GAR-HRP were used without the addition of the COP9 signalosome complex (CSN). Signal intensity of each spot was measured and normalized to the intensity of the spot of C-CSNAP (A1). Measured values for each spot were averaged from six arrays and plotted with standard errors SEM.
as §1, §2

[3] = peptide array, rCSN^ΔCSNAP, left and right spots
[4] = peptide array with rCSN^ΔCSNAP, left and right (n = 10), fold of C-CSNAP (A1)

| Sequence | Average fold change [1] [fold] | Average fold change [2, 3] | Average fold change, intensities as fold of C-CSNAP (A1) [1] | Average fold change [2, 4] [fold] |
| --- | --- | --- | --- | --- |
| DFFNEFEELFEEDEIQ [D46,49,52,53,55E] | 0.5677 | 1.1600 fold of C-CSNAP (A1) | – | – |
| EFFNDFEELFEEDDIQ [D42,49,52,53E] | 0.7257 | 0.8283 fold of C-CSNAP (A1) | – | – |
| DFFNDFEDLFEDEDIQ [E 2, C-CSNAP, Asp to Glu substitution D52,54E] | – | 0.9955 fold of C-CSNAP (A1) | 0.8694 fold of C-CSNAP (A1) | – |
| EFFNEFEDLFDDDEIQ [E 8, C-CSNAP, Asp to Glu substitution D42,46,55E] | – | 0.9227 fold of C-CSNAP (A1) | 0.7616 fold of C-CSNAP (A1) | – |
| EFFNDFEDLFDEDDIQ [Position D13, C-CSNAP, Asp to Glu substitution D42,53E] | – | 1.1346 fold of C-CSNAP (A1) | 0.7560 fold of C-CSNAP (A1) | – |
| EFFNEFEELFEEEEIQ [D42,46,49,52,53,54,56E] | 0.5923 | 1.1160 fold of C-CSNAP (A1) | – | – |
| GAGPYVDLDEAGGSTGLLMDLAANEKAVHADFFNDFEDLFDDDDIQ [B 7, CSNAP residues 12-57] | – | – | 1.1696 fold of C-CSNAP (A1) | 1.0720 |
| VHADFFNDFEDLFDDDDIQ [A 4, CSNAP residues 39-57] | – | – | 1.1190 fold of C-CSNAP (A1) | 0.9552 |
| DFFNDFEDLFEDDEIQ [E 3, C-CSNAP, Asp to Glu substitution D52,55E] | – | 0.8137 fold of C-CSNAP (A1) | 0.8879 fold of C-CSNAP (A1) | – |
| EFFNEFEELFDEEEIQ [D42,46,49,53,54,55E] | 0.3621 | 1.0322 fold of C-CSNAP (A1) | – | – |
| DFFNDFEDLFEEDEIQ [D52,53,55E] | 0.6917 | 1.3267 fold of C-CSNAP (A1) | – | – |
| LLMDLAANEKAVHADFFNDFEDLFDDDDIQ [Position A15, CSNAP residues 28-57] | – | – | 0.9771 fold of C-CSNAP (A1) | 1.2034 |
| EMFPEGAGPYVDLDEAGGSTGLLMDLAANEKAVHADFFNDFEDLFDDDDIQ [Position B12, CSNAP residues 7-57] | – | – | 0.8904 fold of C-CSNAP (A1) | 1.1057 |
| DFFNEFEDLFDDDDIQ [D 4, C-CSNAP, Asp to Glu substitution D46E] | – | 1.0457 fold of C-CSNAP (A1) | 1.0255 fold of C-CSNAP (A1) | – |
| EFFNDFEELFEDEDIQ [D42,49,52,54E] | 0.7100 | 1.0950 fold of C-CSNAP (A1) | – | – |
| DFFNDFEDLFEEEDIQ [D52,53,54E] | – | 1.1046 fold of C-CSNAP (A1) | – | – |
| EFFNDFEELFDEDDIQ [Position E10, C-CSNAP, Asp to Glu substitution D42,49,53E] | – | 1.1579 fold of C-CSNAP (A1) | 0.6945 fold of C-CSNAP (A1) | – |
| EGAGPYVDLDEAGGSTGLLMDLAANEKAVHADFFNDFEDLFDDDDIQ [B 8, CSNAP residues 11-57] | – | – | 0.8775 fold of C-CSNAP (A1) | 0.9764 |
| DFFNEFEELFDEEEIQ [D46,49,53,54,55E] | 0.6202 | 1.4630 fold of C-CSNAP (A1) | – | – |
| KPAVDEMFPEGAGPYVDLDEAGGSTGLLMDLAANEKAVHADFFNDFEDLFDDDDIQ [Position B17, CSNAP residues 2-57] | – | – | 1.0902 fold of C-CSNAP (A1) | 1.3898 |
| DWFNDWEDLFDDDDIQ [Position C17, C-CSNAP, Phe to Trp substitution F43,47W] | – | 1.5247 fold of C-CSNAP (A1) | 0.7959 fold of C-CSNAP (A1) | – |
| DFFNEFEELFEDDEIQ [D46,49,52,55E] | 0.6253 | 1.1176 fold of C-CSNAP (A1) | – | – |
| DFFNEFEELFDDDEIQ [Position E16, C-CSNAP, Asp to Glu substitution D46,49,55E] | – | 0.9545 fold of C-CSNAP (A1) | 0.6983 fold of C-CSNAP (A1) | – |
| DFFNDFEDLFDEDDIQ [D 7, C-CSNAP, Asp to Glu substitution D53E] | – | 1.1500 fold of C-CSNAP (A1) | 0.9008 fold of C-CSNAP (A1) | – |
